Test results from patent US20130310374A1, “Substituted Imidazoquinoline Derivatives” (PIRAMAL ENTERPRISES LIMITED`, priority 2010, published 2013).

Columns and labels:
[1] = system: KCL22; test: Cytotoxicity propidium iodide assay, KCL22; format: cell-based; conditions: Homo sapiens, KCL-22; KCL22 (CML), 48 hours treatment; read-out: IC50 Values in μM, C6f
Experimental: The assay was designed as in the reference, Anticancer Drugs, 2002, 13, 1-8, the disclosure of which is incorporated herein by reference for the teaching of the assay.
Cells from cell lines (ATCC) as mentioned in the table given below were seeded at a density of 3000 cells/well in a white opaque 96-well plate. Following incubation at 37° C./5% CO2 for a period of 18-24 hours, the cells were treated with various concentrations (stock solution was prepared in DMSO and subsequent dilutions were made in media as per ATCC guidelines) of the compounds of the present invention for a period of 48 hours. At the end of treatment, the culture medium was discarded, the cells were washed with 1×PBS and 200 μL of […] propidium iodide was added to each well. […] For analysis, the plates were warmed to RT, allowed to thaw and were read in PoleStar fluorimeter with the fluorescence setting. The percentage of viable cells in the non-treated set of wells was considered to be 100 and the percentage viability following treatment was calculated accordingly. IC50 values were calculated from graphs plotted using these percentages. IC50 values for certain compounds of present invention are depicted in Table 1 and % Inhibition of certain compounds of present invention are depicted in Table 2.

[2] = biological target: T1, ALK1 (ACVRL1) (Homo sapiens, UniProt P37023); test: ALK1 inhibition assay (TR-FRET); format: biochemical; conditions: 20 μM ATP, read-out: IC50 for ALK-1
T1 construct: recombinant human, catalytic domain of ALK1 (ACVRL1) or ALK2 (ACVR1) kinase GST fusion proteins; GST; purchased Invitrogen, USA
Experimental: (§1) Protocol for ALK1 and ALK2 Inhibition Assay
(§2) The in vitro kinase assays using recombinant human, catalytic domain of ALK1 (ACVRL1) or ALK2 (ACVR1) kinase GST fusion proteins (Invitrogen, USA) were conducted using a time-resolved fluorescence (TR-FRET) format. Kinase reactions were carried out in a 384-well plate format in a final volume of 20 μl. The standard enzyme reaction buffer consisted of 50 mM Tris HCL (pH: 7.4), 1 mM EGTA, 10 mM MgCl2, 2 mM DTT, 0.01% Tween-20, 20 nM of ALK1/ALK2 kinase enzyme (Invitrogen, USA), 50 nM of peptide substrate (DNA Topoisomerase 2 alpha (Thr 1342)U1 peptide, Perkin Elmer, USA) and 20 μM of ATP. Various concentrations of compound of Example 3a in DMSO (final concentration 2%), was added to give a final concentration of the compound ranging from 20 μM to 20 pM. [20 nM of enzyme and compound in various concentrations were pre incubated for 10 minutes at 23° C. followed by the addition of 50 nM of the peptide substrate]. Reaction was initiated with the addition of 20 μM of ATP. After incubation for 1 hour at 23° C., kinase reaction was stopped with the addition of 5 μl EDTA (final concentration of 10 mM in 20 μl). […] The IC50 values for compound of Example 3a were determined by a four-parameter sigmoidal curve fit (Sigma plot or Graph pad).

[3] = biological target: T2, ALK2 (ACVR1) (Homo sapiens, UniProt Q04771); test: ALK2 inhibition assay (TR-FRET); format: biochemical; conditions: 20 μM ATP, read-out: IC50 for ALK-2
T2 construct: recombinant human, catalytic domain of ALK1 (ACVRL1) or ALK2 (ACVR1) kinase GST fusion proteins; GST; purchased Invitrogen, USA
Experimental: as §1, §2

[4] = system: arthritic DBA/1 J mice; test: Collagen-induced arthritis; format: in vivo, mouse; conditions: 1 mg/kg, p.o., twice daily
Experimental: Protocol for Collagen-Induced Arthritis
Induction of Collagen-Induced Arthritis and Treatment with Compound of Example 19
All animal experiments were carried out in accordance with the guidelines of Committee for the Purpose of Control and Supervision of Experiments on Animals (CPCSEA). All animal experiments were approved by Institutional Animal Ethics Committee (IAEC) of Piramal Life Sciences Limited, Mumbai, India. Collagen-induced arthritis was induced in DBA/1 J mice as described in J. Exp. Med., 1985, 162, 637-46. Inbred male DBA/1 J mice (8-10 weeks of age, Jackson Laboratories, Bar Harbor, Me.) were immunized intradermally at the base of the tail with 200 μg type II collagen emulsified in Freund's Complete Adjuvant (FCA) on day 0. On day 17, immunized mice were randomized into different groups based on their body weight. From day 17 onwards, (i) one group of mice started receiving administration of compound of Example 19 (1 mg/kg, p.o., twice daily), (ii) a second group of mice started receiving administration of vehicle (0.5% CMC, p.o., twice daily), and (iii) a third group of mice started receiving administration of Enbrel (3 mg/kg, s.c., once daily). On day 21, all mice were boosted with 200 μg type II collagen emulsified in FCA. The mice (8 per treatment group) were monitored daily (from day 17 onwards) for the development and severity of arthritis using articular index and paw thickness as parameters. Articular index scoring was performed employing the following criteria—Fore limbs (Scale 0-3): 0, no redness or swelling; 1, redness but no swelling; 2, redness and swelling of the paw; 3, redness and severe swelling of the paw. […] Swelling of each of the paws of mice was measured with constant-tension, spring-loaded calipers (Mitutoyo, Aurora, Ill.). […]
Treatment continued daily until day 36 of the study, and the body weight of the animal along with the severity of inflammation for all 4 paws was monitored daily. […]

T2 sequence (Q04771 208-502 limits assumed): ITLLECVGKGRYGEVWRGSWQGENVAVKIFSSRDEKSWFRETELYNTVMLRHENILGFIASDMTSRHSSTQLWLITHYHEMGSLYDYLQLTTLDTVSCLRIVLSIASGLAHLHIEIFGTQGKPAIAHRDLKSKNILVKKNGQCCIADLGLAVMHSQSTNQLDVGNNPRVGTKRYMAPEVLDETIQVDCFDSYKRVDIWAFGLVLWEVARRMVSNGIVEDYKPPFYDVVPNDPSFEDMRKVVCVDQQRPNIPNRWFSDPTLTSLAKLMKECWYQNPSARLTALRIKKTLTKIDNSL
T1 sequence (P37023 202-492 limits assumed): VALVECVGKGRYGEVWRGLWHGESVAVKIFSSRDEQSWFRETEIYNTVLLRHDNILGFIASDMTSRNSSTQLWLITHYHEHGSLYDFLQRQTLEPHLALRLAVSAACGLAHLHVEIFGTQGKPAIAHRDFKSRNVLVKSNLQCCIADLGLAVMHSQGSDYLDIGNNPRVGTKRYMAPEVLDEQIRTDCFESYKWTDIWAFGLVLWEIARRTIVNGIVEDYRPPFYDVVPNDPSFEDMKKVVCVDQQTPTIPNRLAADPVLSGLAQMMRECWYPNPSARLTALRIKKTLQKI

Cn1c(=O)n(-c2ccc(C(C)(C)C#N)nc2)c2c3cc(-c4cnc(N)c(C(F)(F)F)c4)ccc3ncc21 [Example 3, 2-(5-(8-(6-Amino-5-(trifluoromethyl)pyridin-3-yl)-3-methyl-2-oxo-2,3-dihydro-1H-imidazo[4,5-c]quinolin-1-yl)pyridin-2-yl)-2-methylpropanenitrile]
IC50 [1]: 2 µM

CS(=O)(=O)O.Cn1c(=O)n(-c2ccc(C(C)(C)C#N)nc2)c2c3cc(-c4cnc(N)c(C(F)(F)F)c4)ccc3ncc21 [Example 3a, 8-(6-Amino-5-(trifluoromethyl)pyridin-3-yl)-1-(6-(2-cyanopropan-2-yl)pyridin-3-yl)-3-methyl-2-oxo-2,3-dihydro-1H-imidazo[4,5-c]quinolin-5-ium methanesulfonate]
IC50 [2]: 42 nM
IC50 [3]: 47 nM

COc1ccc(-n2c(=O)n(C)c3cnc4ccc(-c5cnc(N)c(C(F)(F)F)c5)cc4c32)cn1 [Example 19, 8-(6-Amino-5-(trifluoromethyl)pyridin-3-yl)-1-(6-methoxypyridin-3-yl)-3-methyl-1H-imidazo[4,5-c]quinolin-2(3H)-one]
Bone erosion and joint space narrowing ([4]; day 17 to day 36): distinctly protects against bone erosion and joint space narrowing
Joint destruction, hyperproliferative pannus formation and infiltration of inflammatory cells ([4]; day 17 to day 36): prominently diminishes joint destruction, hyperproliferative pannus formation and infiltration of inflammatory cells
Disease-associated increase in articular index and paw thickness ([4]; day 17 to day 36, FIGS. 4a and 4b): inhibits disease-associated increase in articular index and paw thickness
